BindingDB's records for doi:10.1016/j.bmc.2006.10.050 (Paradigm Pharmaceuticals, 2007)
pIC50, pKi: −log10 of the molar value.

Legend:
[1] = target: Serine/threonine-protein kinase PLK1 (Xenopus laevis, UniProt P70032); experiment: Plx1 Kinase Inhibition Assay; details: pH 7.5; 22 °C
Protocol: Purified Plx1 was first incubated with different concentrations of LFM-A13. The substrate, GST-Cdc25 peptide (254-316) and [gamma-32P]ATP were added and the kinase reaction allowed to proceed for 15 min at room temperature. After incubation, incorporation of radioactivity to the substrate was further quantified.

[2] = target: Serine/threonine-protein kinase PLK3 (Homo sapiens, UniProt Q9H4B4); experiment: PLK3 Kinase Inhibition Assay; details: pH 7; 22 °C
Protocol: The mode of human PLK3 inhibition by LFM-A13 was examined in titration experiments using increasing concentrations of [gamma-32P]ATP and purified N-terminal His6-tagged recombinant human PLK3. The Ki of PLK3 by LFM-A13 was calculated from the reciprocal plots of the intensity of phosphorylation of the substrate versus the concentration of the inhibitor. From this Dixon plot, the Ki represents the dissociation constants of the EI complex, which is determined by the point of linear intersection.

[3] = target: Cyclin-A2/Cyclin-dependent kinase 2 (Homo sapiens, UniProt P24941); experiment: Kinase Selectivity Assay
Text: (§1) The specificity of LFM-A13 was further examined against a broad panel of serine-threonine kinases and tyrosine kinases using the KinaseProfiler Assay protocols from Upstate (Charlottesville, Virginia).

[4] = target: Cyclin-dependent kinase/G2/mitotic-specific cyclin- 1 (Homo sapiens, UniProt P06493); experiment: Kinase Selectivity Assay
Text: as §1

[5] = target: T1, Cytoplasmic tyrosine-protein kinase BMX (Homo sapiens, UniProt P51813); experiment: Kinase Selectivity Assay
T1 sequence (P51813 whole entry): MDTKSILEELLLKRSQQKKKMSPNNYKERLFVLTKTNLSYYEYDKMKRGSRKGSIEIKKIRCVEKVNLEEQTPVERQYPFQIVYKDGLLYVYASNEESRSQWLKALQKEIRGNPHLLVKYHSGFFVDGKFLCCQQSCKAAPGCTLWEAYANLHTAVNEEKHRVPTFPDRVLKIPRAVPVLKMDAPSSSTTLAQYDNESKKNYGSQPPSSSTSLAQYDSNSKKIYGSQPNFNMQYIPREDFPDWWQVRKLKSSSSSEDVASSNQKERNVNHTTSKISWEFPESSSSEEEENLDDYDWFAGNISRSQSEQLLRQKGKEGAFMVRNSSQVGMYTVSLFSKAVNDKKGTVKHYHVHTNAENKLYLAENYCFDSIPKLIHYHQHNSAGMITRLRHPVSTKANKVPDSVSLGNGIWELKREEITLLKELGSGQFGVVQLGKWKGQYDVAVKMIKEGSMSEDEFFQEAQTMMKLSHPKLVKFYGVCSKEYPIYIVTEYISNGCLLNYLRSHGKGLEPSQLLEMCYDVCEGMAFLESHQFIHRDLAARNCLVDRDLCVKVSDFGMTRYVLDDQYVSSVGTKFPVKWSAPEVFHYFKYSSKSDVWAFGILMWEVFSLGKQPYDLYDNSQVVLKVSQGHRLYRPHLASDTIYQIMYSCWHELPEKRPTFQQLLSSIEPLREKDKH
Text: as §1

[6] = target: Hepatocyte growth factor receptor (Homo sapiens, UniProt P08581); experiment: Kinase Selectivity Assay
Text: as §1

[7] = target: Mast/stem cell growth factor receptor Kit (Homo sapiens, UniProt P10721); experiment: Kinase Selectivity Assay
Text: as §1

[8] = target: Protein-tyrosine kinase 6 (Homo sapiens, UniProt Q13882); experiment: Kinase Selectivity Assay
Text: as §1

[9] = target: T2, Serine/threonine-protein kinase Chk1 (Homo sapiens, UniProt O14757); experiment: Kinase Selectivity Assay
T2 sequence (O14757 whole entry): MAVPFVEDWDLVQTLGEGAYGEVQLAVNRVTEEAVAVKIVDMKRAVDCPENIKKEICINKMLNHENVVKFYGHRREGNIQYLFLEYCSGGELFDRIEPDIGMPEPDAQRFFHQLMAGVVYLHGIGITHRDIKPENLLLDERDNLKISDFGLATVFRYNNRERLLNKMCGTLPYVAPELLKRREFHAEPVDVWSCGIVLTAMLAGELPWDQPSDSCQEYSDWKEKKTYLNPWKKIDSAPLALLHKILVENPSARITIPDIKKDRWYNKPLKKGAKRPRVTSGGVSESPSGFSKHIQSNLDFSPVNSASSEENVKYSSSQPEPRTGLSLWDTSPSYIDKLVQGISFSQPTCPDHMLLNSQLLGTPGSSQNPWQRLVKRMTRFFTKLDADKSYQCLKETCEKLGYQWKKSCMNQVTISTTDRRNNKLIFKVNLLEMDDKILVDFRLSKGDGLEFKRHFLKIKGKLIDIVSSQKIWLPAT
Text: as §1

[10] = target: Tyrosine-protein kinase Fyn (Homo sapiens, UniProt P06241); experiment: Kinase Selectivity Assay
Text: as §1

Chain of Serine/threonine-protein kinase PLK3 (Q9H4B4 whole entry): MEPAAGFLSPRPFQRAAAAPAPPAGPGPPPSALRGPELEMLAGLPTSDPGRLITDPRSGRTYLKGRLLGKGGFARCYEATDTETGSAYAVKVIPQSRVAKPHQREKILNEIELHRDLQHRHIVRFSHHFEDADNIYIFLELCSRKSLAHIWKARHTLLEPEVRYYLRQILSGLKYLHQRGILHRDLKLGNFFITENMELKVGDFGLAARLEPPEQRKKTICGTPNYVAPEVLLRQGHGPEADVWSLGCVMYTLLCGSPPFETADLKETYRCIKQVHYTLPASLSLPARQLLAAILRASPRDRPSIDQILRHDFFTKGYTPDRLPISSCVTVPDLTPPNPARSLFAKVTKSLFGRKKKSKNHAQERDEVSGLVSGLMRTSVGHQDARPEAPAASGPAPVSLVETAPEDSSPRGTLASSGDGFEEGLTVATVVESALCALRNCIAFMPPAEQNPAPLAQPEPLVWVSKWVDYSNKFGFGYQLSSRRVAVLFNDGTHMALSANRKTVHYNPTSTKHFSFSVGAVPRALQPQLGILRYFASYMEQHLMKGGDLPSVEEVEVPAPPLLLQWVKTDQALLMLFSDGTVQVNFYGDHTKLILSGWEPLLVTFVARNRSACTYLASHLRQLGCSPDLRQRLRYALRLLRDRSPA
Chain of Hepatocyte growth factor receptor (P08581 whole entry): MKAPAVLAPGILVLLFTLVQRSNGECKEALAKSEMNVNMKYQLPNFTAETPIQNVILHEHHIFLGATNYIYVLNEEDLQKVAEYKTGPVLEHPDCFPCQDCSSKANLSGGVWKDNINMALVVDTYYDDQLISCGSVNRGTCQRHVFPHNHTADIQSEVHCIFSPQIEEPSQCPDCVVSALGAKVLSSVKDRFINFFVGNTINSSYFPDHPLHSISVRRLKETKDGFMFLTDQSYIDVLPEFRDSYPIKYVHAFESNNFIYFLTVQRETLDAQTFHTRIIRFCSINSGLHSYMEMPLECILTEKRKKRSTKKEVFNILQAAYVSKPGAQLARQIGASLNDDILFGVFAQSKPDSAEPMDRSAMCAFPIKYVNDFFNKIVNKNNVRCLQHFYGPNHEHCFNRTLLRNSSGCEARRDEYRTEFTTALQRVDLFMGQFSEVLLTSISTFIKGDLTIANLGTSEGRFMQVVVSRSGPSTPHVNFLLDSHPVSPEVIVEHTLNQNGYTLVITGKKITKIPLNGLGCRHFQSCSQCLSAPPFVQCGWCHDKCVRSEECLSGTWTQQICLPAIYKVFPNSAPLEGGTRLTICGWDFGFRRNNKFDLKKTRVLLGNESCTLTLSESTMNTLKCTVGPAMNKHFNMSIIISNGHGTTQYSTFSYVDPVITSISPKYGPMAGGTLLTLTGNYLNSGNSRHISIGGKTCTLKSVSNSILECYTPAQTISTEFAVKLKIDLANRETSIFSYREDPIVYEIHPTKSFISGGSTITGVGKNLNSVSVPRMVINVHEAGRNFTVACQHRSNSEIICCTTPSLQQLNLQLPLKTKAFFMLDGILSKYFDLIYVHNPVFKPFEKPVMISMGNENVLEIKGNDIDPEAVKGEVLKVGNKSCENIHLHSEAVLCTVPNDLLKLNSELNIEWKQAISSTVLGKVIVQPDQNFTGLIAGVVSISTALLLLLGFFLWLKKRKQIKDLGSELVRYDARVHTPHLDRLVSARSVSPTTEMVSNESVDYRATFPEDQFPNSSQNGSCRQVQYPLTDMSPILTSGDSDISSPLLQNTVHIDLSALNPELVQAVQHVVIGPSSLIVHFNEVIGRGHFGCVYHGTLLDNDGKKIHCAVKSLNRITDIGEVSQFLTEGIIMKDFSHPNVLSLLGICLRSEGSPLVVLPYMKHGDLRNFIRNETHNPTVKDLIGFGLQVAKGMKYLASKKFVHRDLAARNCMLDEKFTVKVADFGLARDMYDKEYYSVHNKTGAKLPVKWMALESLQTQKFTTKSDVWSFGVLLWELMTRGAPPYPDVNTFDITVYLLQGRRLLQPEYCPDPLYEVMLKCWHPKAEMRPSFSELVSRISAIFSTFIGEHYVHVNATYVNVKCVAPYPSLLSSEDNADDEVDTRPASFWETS
Chain of Protein-tyrosine kinase 6 (Q13882 whole entry): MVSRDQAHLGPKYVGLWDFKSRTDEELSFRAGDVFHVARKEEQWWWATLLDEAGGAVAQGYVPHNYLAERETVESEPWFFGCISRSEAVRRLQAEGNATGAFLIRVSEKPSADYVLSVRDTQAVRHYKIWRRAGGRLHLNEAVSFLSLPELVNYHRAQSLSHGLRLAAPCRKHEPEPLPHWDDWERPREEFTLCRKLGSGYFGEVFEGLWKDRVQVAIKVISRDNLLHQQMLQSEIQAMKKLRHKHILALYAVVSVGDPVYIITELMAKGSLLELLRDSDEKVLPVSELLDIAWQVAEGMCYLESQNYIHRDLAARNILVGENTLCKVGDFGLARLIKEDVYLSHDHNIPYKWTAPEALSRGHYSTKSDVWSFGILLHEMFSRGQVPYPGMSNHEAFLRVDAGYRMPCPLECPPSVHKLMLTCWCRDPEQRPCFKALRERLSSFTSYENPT
Chain of Serine/threonine-protein kinase PLK1 (P70032 whole entry): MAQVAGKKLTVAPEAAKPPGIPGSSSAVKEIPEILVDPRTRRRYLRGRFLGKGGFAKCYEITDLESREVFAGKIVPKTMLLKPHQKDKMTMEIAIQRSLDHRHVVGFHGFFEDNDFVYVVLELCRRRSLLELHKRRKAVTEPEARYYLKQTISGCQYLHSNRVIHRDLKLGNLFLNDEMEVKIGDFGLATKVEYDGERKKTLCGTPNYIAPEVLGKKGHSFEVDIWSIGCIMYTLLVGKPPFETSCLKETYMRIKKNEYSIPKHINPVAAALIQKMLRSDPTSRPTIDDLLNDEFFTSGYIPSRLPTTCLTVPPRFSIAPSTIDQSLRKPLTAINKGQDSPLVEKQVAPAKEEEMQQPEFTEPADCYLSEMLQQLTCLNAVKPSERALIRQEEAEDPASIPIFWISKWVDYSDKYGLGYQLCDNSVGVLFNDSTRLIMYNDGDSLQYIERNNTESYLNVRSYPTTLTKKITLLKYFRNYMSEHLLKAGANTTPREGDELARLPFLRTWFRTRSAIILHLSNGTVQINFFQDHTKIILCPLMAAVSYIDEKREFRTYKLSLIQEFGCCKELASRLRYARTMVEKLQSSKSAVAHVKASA
Chain of Tyrosine-protein kinase Fyn (P06241 whole entry): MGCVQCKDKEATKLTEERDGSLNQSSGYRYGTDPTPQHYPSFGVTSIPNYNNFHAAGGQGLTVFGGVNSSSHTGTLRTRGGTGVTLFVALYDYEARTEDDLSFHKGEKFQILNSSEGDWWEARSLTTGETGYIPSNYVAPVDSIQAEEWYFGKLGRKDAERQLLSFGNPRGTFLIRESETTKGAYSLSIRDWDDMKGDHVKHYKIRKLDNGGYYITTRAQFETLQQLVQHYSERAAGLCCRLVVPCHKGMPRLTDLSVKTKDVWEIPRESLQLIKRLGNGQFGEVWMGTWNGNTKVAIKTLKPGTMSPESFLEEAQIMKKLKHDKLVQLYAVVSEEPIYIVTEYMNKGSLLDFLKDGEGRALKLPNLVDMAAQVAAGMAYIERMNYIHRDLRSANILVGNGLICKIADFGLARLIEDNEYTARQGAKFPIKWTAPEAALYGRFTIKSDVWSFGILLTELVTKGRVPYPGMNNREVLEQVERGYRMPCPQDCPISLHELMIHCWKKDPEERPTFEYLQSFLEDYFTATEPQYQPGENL
Chain of Cyclin-dependent kinase/G2/mitotic-specific cyclin- 1 (P06493 whole entry): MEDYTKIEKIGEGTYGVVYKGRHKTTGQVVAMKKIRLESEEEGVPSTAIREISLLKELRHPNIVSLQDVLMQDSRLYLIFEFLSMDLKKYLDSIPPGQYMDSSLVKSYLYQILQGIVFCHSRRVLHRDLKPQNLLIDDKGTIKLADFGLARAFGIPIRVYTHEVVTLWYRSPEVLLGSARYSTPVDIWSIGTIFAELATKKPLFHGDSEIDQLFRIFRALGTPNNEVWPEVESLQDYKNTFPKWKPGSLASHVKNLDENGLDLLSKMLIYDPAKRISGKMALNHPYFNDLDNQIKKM
Chain of Cyclin-dependent kinase/G2/mitotic-specific cyclin- 1 (P14635 whole entry, further chain): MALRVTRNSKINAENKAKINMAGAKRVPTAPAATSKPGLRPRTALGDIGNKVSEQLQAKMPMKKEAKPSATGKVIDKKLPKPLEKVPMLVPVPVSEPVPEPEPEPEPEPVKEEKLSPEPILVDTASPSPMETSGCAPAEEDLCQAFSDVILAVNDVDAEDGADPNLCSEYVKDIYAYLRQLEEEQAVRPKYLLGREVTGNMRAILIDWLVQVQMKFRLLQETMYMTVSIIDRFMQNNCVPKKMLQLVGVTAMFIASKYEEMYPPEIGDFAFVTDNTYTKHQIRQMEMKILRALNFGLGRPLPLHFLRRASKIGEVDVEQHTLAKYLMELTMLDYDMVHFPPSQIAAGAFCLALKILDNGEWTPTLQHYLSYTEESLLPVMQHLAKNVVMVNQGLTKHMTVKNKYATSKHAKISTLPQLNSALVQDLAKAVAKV

Question: With CC(=O)C(C#N)C(=O)Nc1cc(Br)ccc1Br (stereo unspecified) as the compound, how does the pIC50 [1] read?
Answer: 5.00

Question: And the pIC50 [2]?
Answer: 4.21

Question: What about the pKi [2] of the same compound?
Answer: 5.14

Question: And the pIC50 [3]?
Answer: < 3.30

Question: What about the pIC50 [4] of the same compound?
Answer: < 3.30

Question: What about the pIC50 [5] of the same compound?
Answer: 3.55

Question: And the pIC50 [6]?
Answer: 3.67

Question: And the pIC50 [7]?
Answer: < 3.30

Question: What about the pIC50 [8] of the same compound?
Answer: 3.57

Question: And the pIC50 [9]?
Answer: < 3.30

Question: What about the pIC50 [10] of the same compound?
Answer: 3.62
